Test [1] has as its target T1, Inhibitor of nuclear factor kappa-B kinase subunit beta (Homo sapiens, UniProt O14920).
T1 sequence (O14920 whole entry): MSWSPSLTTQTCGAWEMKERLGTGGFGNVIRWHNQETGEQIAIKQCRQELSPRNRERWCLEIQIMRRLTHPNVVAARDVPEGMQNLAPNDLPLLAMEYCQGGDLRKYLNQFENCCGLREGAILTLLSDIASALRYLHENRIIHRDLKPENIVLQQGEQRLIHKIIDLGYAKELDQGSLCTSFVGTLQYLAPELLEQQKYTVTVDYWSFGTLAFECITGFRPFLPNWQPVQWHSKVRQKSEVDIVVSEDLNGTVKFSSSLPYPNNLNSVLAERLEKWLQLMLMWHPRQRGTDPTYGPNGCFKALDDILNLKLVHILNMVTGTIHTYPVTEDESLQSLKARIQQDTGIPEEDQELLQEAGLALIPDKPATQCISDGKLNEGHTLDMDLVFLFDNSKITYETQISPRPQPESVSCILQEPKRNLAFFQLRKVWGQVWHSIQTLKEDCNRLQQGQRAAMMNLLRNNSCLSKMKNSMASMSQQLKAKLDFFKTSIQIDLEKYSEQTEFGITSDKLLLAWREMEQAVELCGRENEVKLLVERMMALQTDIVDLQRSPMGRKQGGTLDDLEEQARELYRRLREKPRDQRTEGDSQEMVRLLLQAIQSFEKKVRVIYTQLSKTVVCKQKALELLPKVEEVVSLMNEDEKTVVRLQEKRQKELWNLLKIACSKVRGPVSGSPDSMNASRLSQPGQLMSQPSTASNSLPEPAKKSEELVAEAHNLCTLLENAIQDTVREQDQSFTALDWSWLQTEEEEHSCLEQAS
In words: Inhibitory activity against recombinant human I-kappa-B-kinase beta.

In a further test the test system is A549. In words: TNF-alpha-induced RANTES production in A549 cells using ELISA assay. The class given is functional, cell-based. The note with it: Homo sapiens. Background: An ELISA detects its analyte on a solid surface through an enzyme-linked reagent.
Another test relates to PBMC. In words: Tested for LPS induced TNFalpha production in human PBMC cells. The class given is functional, cell-based.
Test [2] deals with T2, Inhibitor of nuclear factor kappa-B kinase subunit alpha (Homo sapiens, UniProt O15111).
T2 sequence (O15111 whole entry): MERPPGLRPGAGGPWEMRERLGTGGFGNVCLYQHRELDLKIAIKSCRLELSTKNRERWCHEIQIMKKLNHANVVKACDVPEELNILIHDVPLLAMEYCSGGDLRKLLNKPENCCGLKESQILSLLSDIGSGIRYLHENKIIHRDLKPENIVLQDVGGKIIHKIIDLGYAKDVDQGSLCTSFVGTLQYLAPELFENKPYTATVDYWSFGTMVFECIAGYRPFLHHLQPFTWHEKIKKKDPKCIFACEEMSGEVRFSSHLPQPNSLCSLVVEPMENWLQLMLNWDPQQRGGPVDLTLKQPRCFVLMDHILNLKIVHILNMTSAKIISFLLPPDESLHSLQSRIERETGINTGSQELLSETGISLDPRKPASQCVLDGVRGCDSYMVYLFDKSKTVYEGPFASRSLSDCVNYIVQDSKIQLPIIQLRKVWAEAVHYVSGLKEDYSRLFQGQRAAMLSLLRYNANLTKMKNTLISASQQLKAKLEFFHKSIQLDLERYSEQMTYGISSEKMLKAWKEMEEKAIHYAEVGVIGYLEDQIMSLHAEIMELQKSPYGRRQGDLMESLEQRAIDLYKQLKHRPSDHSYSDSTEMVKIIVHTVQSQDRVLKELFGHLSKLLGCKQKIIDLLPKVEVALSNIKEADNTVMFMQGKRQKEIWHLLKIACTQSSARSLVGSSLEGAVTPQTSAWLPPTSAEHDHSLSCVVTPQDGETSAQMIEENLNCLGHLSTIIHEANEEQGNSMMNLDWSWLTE
In words: Inhibition of I-kappa-B-kinase alpha.

Test [3] can be described thus: Inhibition of Mitogen activated protein kinase kinase 4.
Test [4] in a line: Tested for anti-CD3/anti-CD28-induced IL-2 production in Jurkat T-cell. It counts as functional, cell-based. The conditions noted are these: Homo sapiens.

The structures appear in SMILES notation. pIC50: −log10 of the molar value.

As usually defined, the pIC50 is the negative decadic logarithm of the IC50, by convention in mol/L. `CC(C)C(N)c1cc(-c2ccccc2O)nc(N)c1C#N` (stereo not given): the figures for the negative-log IC50 (pIC50) (in test [1]; with A549) were 6.62 and 5.30, respectively.
For `CCCCC(N)c1cc(-c2ccccc2O)nc(N)c1C#N` (stereo not given), the pIC50 in test [1] was 6.32; with A549, 4.82.
As to `CC(N)Cc1cc(-c2ccccc2O)nc(N)c1C#N` (stereo not given), the negative-log IC50 (pIC50) is 6.33 in test [1] and 5.52 in the test on A549.
For the compound `CC(N)c1cc(-c2ccccc2O)nc(N)c1C#N` (stereo not given), the pIC50 in test [1] is 6.82; with A549, 5.40.
Regarding `N#Cc1c(C(N)Cc2ccccc2)cc(-c2ccccc2O)nc1N` (stereo not given), the pIC50 in test [1] was 7.22; with A549, 5.10.
On to `N#Cc1c(C(N)Cc2ccc(F)cc2)cc(-c2ccccc2O)nc1N` (stereo not given), for which the pIC50 in test [1] was 7.40; in the test on A549, 5.30.
As for `N#Cc1c(C(N)CCc2ccccc2)cc(-c2ccccc2O)nc1N` (stereo not given), the results for the pIC50 (in test [1]; in the test on A549) were 6.14 and 4.82, respectively.
Turning to `N#Cc1c(C2CCCNC2)cc(-c2ccccc2)nc1N` (stereo not given), the pIC50 in test [1] was under 4.70.
In the case of `N#Cc1c(C2CCNCC2)cc(-c2ccccc2O)nc1N`, the negative-log IC50 (pIC50) is 6.52 in test [1] and 6.40 in the test with A549.
The corresponding values for `CN1CCCC(c2cc(-c3ccccc3O)nc(N)c2C#N)C1` (stereo not given) are 6.64 and 6.00.
On to `N#Cc1c(-c2cccnc2)cc(-c2ccccc2O)nc1N`, for which the negative logarithm of the IC50 (pIC50) in test [1] is 5.21.
Consider `N#Cc1c(N)nc(-c2ccccc2O)c(F)c1C1CCCNC1` (stereo not given), for which the pIC50 in test [1] is 6.64; in the test with A549, 5.70.
`N#Cc1c(C2CCCNC2)cc(-c2ccccc2O)nc1N` (stereo not given): the pIC50 in the test with PBMC is 6.40; in test [1], 7.60; in test [2], 6.35; in test [3], under 4.70; in test [4], 6.22; with A549 it was 6.52.
`CC(=O)Nc1nc(-c2ccccc2O)cc(C2CCCNC2)c1C#N` (stereo not given): the figures for the negative-log IC50 (pIC50) (in test [1]; with A549) were 6.48 and 5.82, respectively.
`CNc1nc(-c2ccccc2O)cc(C2CCCNC2)c1C#N` (stereo not given): the pIC50 in test [1] is 5.19; in the test with A549, 7.70.
Consider `COc1ccc(CC(N)c2cc(-c3ccccc3O)nc(N)c2C#N)cc1` (stereo not given), for which the pIC50 is 7.10 in test [1] and 5.30 in the test on A549.
Take `N#Cc1c(CC(N)c2ccccc2)cc(-c2ccccc2O)nc1N` (stereo not given): the pIC50 is 6.96 in test [1] and 5.70 in the test on A549.
With `N#Cc1c(CCN)cc(-c2ccccc2O)nc1N`, the pIC50 is 7.15 in test [1] and 6.10 with A549.
Turning to `N#Cc1c(C2CCCCN2)cc(-c2ccccc2O)nc1N` (stereo not given), the figures for the pIC50 (in test [1]; in the test on A549) were 6.28 and 5.22, respectively.

The values above are taken from ChEMBL document CHEMBL1137129, “Synthesis and structure-activity relationships of novel IKK-beta inhibitors. Part 2: Improvement of in vitro activity” (Bioorg Med Chem Lett, 2004).
